Where a name gives a salt, the structure may show the parent alone. Read-outs that look alike come from different tables or passages of the source.
Key:
[1] = target: T1, PKC epsilon (Homo sapiens, UniProt Q02156); experiment: Biochemical assay for PKC epsilon (fluorescence polarization, Protein Kinase C Assay Kit, Red); conditions: read-out: IC50 μM PKCε
T1 construct: purchased Invitrogen P2282
T1 sequence (Q02156 1-737): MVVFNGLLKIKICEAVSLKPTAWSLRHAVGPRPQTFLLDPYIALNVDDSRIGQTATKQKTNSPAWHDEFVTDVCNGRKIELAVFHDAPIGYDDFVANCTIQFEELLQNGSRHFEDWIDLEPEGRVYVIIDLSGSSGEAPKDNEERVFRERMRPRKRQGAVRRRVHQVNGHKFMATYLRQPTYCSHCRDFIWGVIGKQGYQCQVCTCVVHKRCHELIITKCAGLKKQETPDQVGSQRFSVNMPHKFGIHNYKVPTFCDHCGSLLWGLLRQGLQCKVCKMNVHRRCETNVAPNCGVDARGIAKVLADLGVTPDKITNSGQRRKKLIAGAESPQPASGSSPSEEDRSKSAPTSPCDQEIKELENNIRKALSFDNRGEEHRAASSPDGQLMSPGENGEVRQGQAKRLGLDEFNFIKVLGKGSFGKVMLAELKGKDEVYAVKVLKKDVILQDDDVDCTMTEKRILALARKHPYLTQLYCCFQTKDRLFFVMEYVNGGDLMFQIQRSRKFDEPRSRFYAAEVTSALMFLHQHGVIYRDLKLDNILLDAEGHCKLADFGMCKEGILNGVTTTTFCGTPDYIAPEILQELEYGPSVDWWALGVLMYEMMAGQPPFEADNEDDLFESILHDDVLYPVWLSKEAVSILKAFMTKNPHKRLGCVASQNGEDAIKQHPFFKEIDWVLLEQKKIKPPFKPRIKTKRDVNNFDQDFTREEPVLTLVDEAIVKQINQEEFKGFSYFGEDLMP
How it was run: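 PKC epsilon at 10 ng/ml final was preincubated 30 min at room temperature with compound in HEPES pH 7.4 with DTT and Triton X-100. ATP/protein substrate was then added in buffer with MgCl2 and CaCl2 for 80 min. The reaction was stopped with EDTA, phosphorylation was detected by fluorescence polarization with rhodamine tracer and anti-phosphoserine antibody, and IC50 values came from curve fits.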

[2] = target: T2, PKC theta (Homo sapiens, UniProt Q04759); experiment: Biochemical assay for PKC theta (fluorescence polarization, Protein Kinase C Assay Kit, Red)
T2 construct: purchased Invitrogen P2996
Method: The compounds were tested for inhibition of PKC theta.
The inhibition assays were performed with a fluorescence polarization (FP) assay using the commercially available Protein Kinase C Assay Kit, Red, from Invitrogen (Product ID. No. P2941), essentially in accordance with the protocol supplied by the manufacturer. The substrate used was […] (Mw 1561), also obtained from Invitrogen (Product ID No. P2760). The isozyme PKC theta was also obtained from Invitrogen (Product ID No. P2996).
Staurosporine was used as a positive control (2 μM).
To perform the assay, 2 μl, of a solution of the compound to be tested in DMSO (at each concentration) was added to 6 μl of a solution of the enzyme in 10 mM HEPES, 5 mM dithiotreitol, 0.1% Triton X-100, pH 7.4. The final concentration of the enzymes was 60 ng/ml.
After incubating for 30 minutes at room temperature, 4 μl of a mixture of ATP and the protein substrate in 60 mM HEPES (pH7.4), 15 mM MgCl2, 0.3 mM CaCl2, 0.06% NP40 was added. The final concentration of the ATP was 2.5 μM and final concentration of protein substrate was 1 μM.
After incubating for 80 minutes at room temperature, 3 μl of a mix solution of 500 mM EDTA (stop solution) and the Rhodamine-based PKC Red Tracer (from the Protein Kinase C Assay Kit) in BGG/phosphate buffer (pH7.4) with 0.02% NaN3 and 0.1% Triton X-100 was added and 5 μl of a the Anti-Phosphoserine antibody (also from the Protein Kinase C Assay Kit) in BGG/phosphate buffer (pH7.4) with 0.02% NaN3.
The mixture thus obtained (total volume: 20 μl) was incubated for 60 minutes at room temperature, upon which the fluorescence polarization was measured using an automated plate reader (Perkin Elmer, Model Envision 2100-0010 HTS) with FP filters for rhodamine: excitation fitter FITC FP 531 and emission filters FITC FP P-pol 595 and FITC FP S-pol 595 (Perkin-Elmer). The results were fitted to a curve using the XL-Fit algorithm and IC50 values were calculated for each fitted curve, again using the XL-Fit algorithm.

[3] = target: T3, human ROCKα/ROCKII mix (Homo sapiens, UniProt O75116); experiment: Biochemical assay for ROCK (fluorescence polarization, ROCK IMAP Kit)
T3 construct: purchased Upstate Biotechnology 14-451

[4] = system: PKCε; experiment: Reporter assay (PathDetect trans reporter, Elk/SEAP) in reporter cell-lines over-expressing PKCε; assay type: cell-based
Text: Whereas the reporter assay is focused on PKCε specific inhibition in a recombinant system, the monocytes assay is a biomarker assay that can be performed in isolated monocytes, full blood and in vivo to follow the pharmacological reduction of cytokine production:
The reporter assay exploits the effect of over-expressed PKCε on kinase activation and phosphorylation of a transcription factor to evaluate the potency and selectivity of PKCε inhibitors in a cellular context.
It has been shown by jae-Won Soh et al (MCB, February 1999 p 1313-1324) that over-expression of PKC epsilon results in the activation of MAPK-pathway (c-raf/MEK/ERK) leading to the activation of Elk transcription factor. This event can be monitored using the PathDetect trans reporter assay system (Stratagene): pFA2-ELK codes for a fusion protein between the Gal4 DNA binding domain and the transactivation domain of Elk which drives the expression of a secreted alkaline phosphatase (SEAP) reporter gene.
Compounds are incubated with reporter cell-lines either over-expressing PKCε, leading to continued activation of the kinase, or mock transfected cells. Inhibition of the PKCε induced signal in the absence of an effect on the basal level (mock transfected cells) is indicative for selective PKCε inhibition.

[5] = Table 2, compounds of Formula XIII

T3 sequence (O75116 11-552 limits assumed): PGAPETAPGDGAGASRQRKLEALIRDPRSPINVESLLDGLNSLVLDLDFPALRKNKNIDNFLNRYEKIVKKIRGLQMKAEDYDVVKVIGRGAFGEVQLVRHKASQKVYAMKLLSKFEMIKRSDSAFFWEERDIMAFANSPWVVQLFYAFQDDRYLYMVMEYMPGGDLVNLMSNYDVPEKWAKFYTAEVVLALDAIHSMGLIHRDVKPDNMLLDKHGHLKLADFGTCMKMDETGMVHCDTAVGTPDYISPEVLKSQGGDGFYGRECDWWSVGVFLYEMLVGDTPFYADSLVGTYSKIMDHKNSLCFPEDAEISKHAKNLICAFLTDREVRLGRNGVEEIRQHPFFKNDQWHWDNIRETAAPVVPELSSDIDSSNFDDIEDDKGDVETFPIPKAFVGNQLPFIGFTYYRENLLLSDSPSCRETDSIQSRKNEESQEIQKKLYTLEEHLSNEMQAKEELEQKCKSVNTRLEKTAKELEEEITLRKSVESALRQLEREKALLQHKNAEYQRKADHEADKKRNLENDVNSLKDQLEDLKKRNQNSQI
T2 sequence (Q04759 whole entry): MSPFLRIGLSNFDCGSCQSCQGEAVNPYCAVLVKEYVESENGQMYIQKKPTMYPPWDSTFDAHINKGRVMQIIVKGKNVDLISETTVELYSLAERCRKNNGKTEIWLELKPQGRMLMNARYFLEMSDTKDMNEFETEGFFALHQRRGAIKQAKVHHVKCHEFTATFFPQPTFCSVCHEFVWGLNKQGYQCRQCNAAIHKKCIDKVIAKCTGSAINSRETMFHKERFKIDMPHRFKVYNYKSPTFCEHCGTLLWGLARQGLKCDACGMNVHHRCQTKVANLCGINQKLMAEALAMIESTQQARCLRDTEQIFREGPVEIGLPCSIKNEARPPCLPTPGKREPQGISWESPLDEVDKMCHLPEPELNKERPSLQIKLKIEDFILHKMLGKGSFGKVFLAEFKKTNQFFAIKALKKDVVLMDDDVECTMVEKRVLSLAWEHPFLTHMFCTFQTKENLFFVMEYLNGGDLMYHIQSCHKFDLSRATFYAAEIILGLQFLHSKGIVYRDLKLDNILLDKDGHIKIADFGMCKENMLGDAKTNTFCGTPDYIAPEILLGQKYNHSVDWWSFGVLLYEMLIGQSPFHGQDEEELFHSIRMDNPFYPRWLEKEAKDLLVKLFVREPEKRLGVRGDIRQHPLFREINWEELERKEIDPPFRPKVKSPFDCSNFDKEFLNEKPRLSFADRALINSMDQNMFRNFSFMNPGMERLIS

Row | IC50 [1, 5] | IC50 [2] | IC50 [3, 5] | IC50 [4] | IC50 [1] | IC50 [3] | Compound
1 | < 0.05 µM | 50 to 500 nM | 0.05 to 0.5 µM |  |  |  | NC(CNC(=O)C1(c2ccc(Cl)cc2)CC1)c1ccc(C(=O)Nc2ccncc2)cc1 (stereo not shown) [Compound 168, 4-(1-Amino-2-{[1-(4-chloro-phenyl)-cyclopropanecarbonyl]-amino}-ethyl)-N-pyridin-4-yl-benzamide dihydrochloride]
2 | < 0.05 µM | 50 to 500 nM |  | < 5 µM |  |  | CC(C)(C(=O)NCC(N)c1ccc(C(=O)Nc2ccncc2)cc1)c1ccc(Cl)cc1 (stereo not shown) [Compound 335, 4-{1-Amino-2-[2-(4-chloro-phenyl)-2-methyl-propionylamino]-ethyl}-N-pyridin-4-yl-benzamide]
3 | < 0.05 µM | < 50 nM | 0.05 to 0.5 µM | < 5 µM |  |  | CC(C)(C(=O)NCC(N)c1ccc(C(=O)Nc2ccncc2)cc1)c1ccc(F)cc1 (stereo not shown) [Compound 339, 4-{1-Amino-2-[2-(4-fluoro-phenyl)-2-methyl-propionylamino]-ethyl}-N-pyridin-4-yl-benzamide]
4 |  | < 50 nM |  | < 5 µM |  |  | NC(CNC(=O)C1(c2ccc(Cl)cc2)CC1)c1ccc(C(=O)Nc2ccnc3[nH]ccc23)cc1 (stereo not shown) [Compound 371, 4-(1-Amino-2-{[1-(4-chloro-phenyl)-cyclopropanecarbonyl]-amino}-ethyl)-N-(1H-pyrrolo[2,3-b]pyridin-4-yl)-benzamide dihydrochloric acid salt]
5 |  | < 50 nM |  | < 5 µM | < 0.05 µM | 0.05 to 0.5 µM | CC(C)(C(=O)NC[C@@H](N)c1ccc(C(=O)Nc2ccncc2)cc1)c1ccc(Cl)cc1 [Compound 399, 4-{(S)-1-Amino-2-[2-(4-chloro-phenyl)-2-methyl-propionylamino]-ethyl}-N-pyridin-4-yl-benzamide dihydrochloric acid salt]
